Reference: patent US20070032477A1, “Pteridine derivatives useful for making pharmaceutical compositions” (priority 2003, published 2007)
pIC50: −log10 of the molar value.

Tests used:
[1] = test system: production of TNF-α by PBMC in response to stimulation by LPS; experiment: TNF-α assay; format: cell-based, human; details: LPS 1 μg/ml, 72 hours, sandwich ELISA
Procedure: (§1) Peripheral blood mononuclear cells (herein referred as PBMC), in response to stimulation by lipopolysaccharide (hereinafter LPS), a gram-negative bacterial endotoxin, produce various […], in particular human TNF-α. Inhibition of the activation of PBMC can therefore be measured by the level of suppression of the production of TNF-α by PBMC in response to stimulation by LPS.
(§2) Such inhibition measurement was performed as follows: PBMC were isolated from heparinized peripheral blood by density gradient centrifugation over Lymphoprep (commercially available from Nycomed, Norway). LPS was then added to the PMBC suspension in complete medium (10^6 cells/ml) at a final concentration of 1 μg/ml. The pteridine derivative to be tested was added at different concentrations (0.1 μM, 1 μM and 10 μM) and the cells were incubated at 37° C. for 72 hours in 5% CO2. The supernatants were collected, then TNF-α concentrations were measured with respectively an anti-TNF-α antibody in a sandwich ELISA (Duo Set ELISA human TNFα, commercially available from R&D Systems, United Kingdom). The calorimetric reading of the ELISA was measured by a Multiskan RC plate reader (commercially available from ThermoLabsystems, Finland) at 450 nm (reference wavelength: 690 nm). Data analysis was performed with Ascent software 2.6. (also from ThermoLabsystems, Finland): a standard curve (recombinant human TNFα) was drawn and the amount (pg/ml) of each sample on the standard curve was determined.
The % suppression of human TNFα production by the pteridine derivatives of the invention (drugs) was calculated using the formula: [formula]

[2] = test system: production of IL-1 β by PBMC in response to stimulation by LPS; experiment: IL-1 β assay; format: cell-based, human; details: LPS 1 μg/ml, 72 hours, sandwich ELISA
Procedure: as §1, with “(LPS),” for “(hereinafter LPS),”, “IL-1 β.” for “TNF-α.”, “IL-1 β” for “TNF-α”
as §2, with “IL-1 β” for “TNF-α”, “with” for “with respectively”, “anti-IL-1 β” for “anti-TNF-α”, “ELISA.” for “ELISA (Duo Set ELISA human TNFα, commercially available from R&D Systems, United Kingdom).”, “IL-1 β)” for “TNFα)”
The % suppression of human IL-1 β by the pteridine derivatives (drugs) of this invention was calculated using the formula: [formula]

[3] = test system: mixed lymphocyte reaction (PBMC with allogeneic PBMC or Eppstein-Barr Virus-transformed human B cells as stimulator cells); experiment: Mixed lymphocyte reaction (MLR) assay; format: cell-based; details: lowest concentration giving 50% suppression of the MLR; [3H]-thymidine
Procedure: Pteridine derivatives were first dissolved (10 mM) in dimethylsulfoxide (hereinafter referred as DMSO) and further diluted in culture medium before use for the following in vitro experiments. The commercially available culture medium consisted of RPMI-1640+10% foetal calf serum (FCS). Some pteridine derivatives described in the previous examples (as indicated in table 1) were tested in the following mixed lymphocyte reaction (MLR) assay.
Peripheral blood mononuclear cells (hereinafter referred as PBMC) were isolated from heparinized peripheral blood by density gradient centrifugation over Lymphoprep (Nycomed, Maorstua, Norway). Allogeneic PBMC or Eppstein-Barr Virus-transformed human B cells [commercially available under the trade name RPM11788 (ATCC name CCL156)] which strongly express B7-1 and B7-2 antigens were used as stimulator cells after irradiation with 30 Gy. MLR was performed in triplicate wells. After 5 days incubation at 37° C., 1 μCi [^3H]-thymidine was added to each cup. After a further 16 hours incubation, cells were harvested and counted in a […]. Inhibition of proliferation by a compound (drug) described in some of the previous examples was counted using the formula: [formula] wherein cpm is the thymidine count per minute. The MLR assay is regarded by those skilled in the art as an in vitro analogue of the transplant rejection since it is based on the recognition of allogeneic major histocompatibility antigens on the stimulator leukocytes, by responding lymphocytes.

| Molecule | pIC50 [1] | pIC50 [2] | pIC50 [3] |
| --- | --- | --- | --- |
| 2-amino-4-(1-cyclopentylpiperazino)-6-(3,4-dimethoxyphenyl)pteridine [Example 124] | 6.40 | 5.30 |  |
| COc1ccc(-c2cnc3nc(N)nc(N4CCN(C(=O)Nc5ccc(F)c(Cl)c5)CC4)c3n2)cc1OC [Example 106, 2-amino-4-(N-3-chloro-4-fluorophenylcarbamoyl-piperazin-1-yl)-6-(3,4-dimethoxyphenyl)pteridine] | 5.85 |  | 7.24 |
| CCCCNC(=O)N1CCN(c2nc(N)nc3ncc(-c4ccc(OC)c(OC)c4)nc23)CC1 [Example 109, 2-amino-4-[(N-butyl-carbamoyl-piperazin-1-yl)]-6-(3,4-dimethoxyphenyl)pteridine] | 6.40 |  | 7.00 |
| COc1ccc(-c2cnc3nc(N)nc(N4CCN(C(=O)N(C)c5ccccc5)CC4)c3n2)cc1OC [Example 117, 2-amino-4-(N-methyl-N-phenyl-carbamoyl-piperazin-1-yl)-6-(3,4-dimethoxyphenyl)pteridine] | 7.30 |  | 7.14 |
| COc1ccc(-c2cnc3nc(N)nc(N4CCN(C(=O)N(C)c5ccc(C)cc5)CC4)c3n2)cc1OC [Example 119, 2-amino-4-(N-methyl-N-tolyl-carbamoyl-piperazin-1-yl)-6-(3,4-dimethoxyphenyl)pteridine] | 6.59 |  | 6.52 |
| COc1ccc(-c2cnc3nc(N)nc(N4CCN(CCN(C(C)C)C(C)C)CC4)c3n2)cc1OC [Example 128, 2-amino-4-(1-(2-diisopropylaminoethyl)-piperazino)-6-(3,4-dimethoxyphenyl)pteridine] | 5.48 |  | 5.13 |
| COc1ccc(-c2cnc3nc(N)nc(N4CCN(CCN5CCOCC5)CC4)c3n2)cc1OC [Example 129, 2-amino-4-(1-(2-morpholino4-yl-ethyl)-piperazino)-6-(3,4-dimethoxyphenyl)pteridine] | 6.10 |  | 5.60 |
| COc1ccc(-c2cnc3nc(N)nc(N4CCN(C(=O)CN5CCOCC5)CC4)c3n2)cc1OC [Example 130, 2-amino-4-(4-[2-(piperazin-1-yl)-acetyl]-morpholino)-6-(3,4-dimethoxy-phenyl)pteridine] | 5.85 |  | 5.82 |
| CCOC(=O)C(C)N1CCN(c2nc(N)nc3ncc(-c4ccc(OC)c(OC)c4)nc23)CC1 (centres unmarked) [Example 133, 2-amino-4-(2-(piperazin-1-yl)-propionic acid ethyl ester)-6-(3,4-dimethoxyphenyl)pteridine] | 6.48 |  | 5.92 |
| COc1ccc(-c2cnc3nc(N)nc(N4CCN(Cc5c(Cl)cccc5Cl)CC4)c3n2)cc1OC [Example 137, 2-amino-4-[(2,6-dichlorobenzyl)piperazin-1-yl]-6-(3,4-dimethoxyphenyl)pteridine] | 6.15 |  | 5.12 |
| COc1ccc(-c2cnc3nc(N)nc(N4CCN(Cc5ccccc5F)CC4)c3n2)cc1OC [Example 141, 2-amino-4-((2-fluorobenzyl)piperazin-1-yl)-6-(3,4-dimethoxyphenyl)pteridine] | 6.70 |  | 6.15 |
| COc1ccc(-c2cnc3nc(N)nc(N4CCN(Cc5ccc(C(C)(C)C)cc5)CC4)c3n2)cc1OC [Example 144, 2-amino-4-((4-tert-butylbenzyl)piperazin-1-yl)-6-(3,4-dimethoxyphenyl)pteridine] | 6.15 |  | 5.37 |
| COc1ccc(-c2cnc3nc(N)nc(N4CCN(c5ccncc5)CC4)c3n2)cc1OC [Example 145, 2-amino-4-((4-pyridyl)-piperazin-1-yl)-6-(3,4-dimethoxyphenyl)pteridine] | 5.36 |  | 5.46 |
| COc1ccc(-c2cnc3nc(N)nc(N4CCN(Cc5cccc6ccccc56)CC4)c3n2)cc1OC [Example 158, 2-amino-4-((1-naphtylmethyl)-piperazin-1-yl)-6-(3,4-dimethoxyphenyl)pteridine] | 6.15 |  | 6.10 |
| COc1ccc(-c2cnc3nc(N)nc(N4CCN(c5ccccc5OC)CC4)c3n2)cc1OC [Example 160, 2-amino-4-((2-methoxyphenyl)-piperazin-1-yl)-6-(3,4-dimethoxyphenyl)pteridine] | 6.38 |  | 5.42 |
| COc1ccc(-c2cnc3nc(N)nc(N4CCN(CCC#N)CC4)c3n2)cc1OC [Example 163, 2-amino-6-(3,4-dimethoxyphenyl)-4-(4-(3-propionitril)-piperazin-1-yl)pteridine] | 6.30 |  | 6.30 |
| COc1ccc(-c2cnc3nc(N)nc(N4CCN(CC(C)C)CC4)c3n2)cc1OC [Example 168, 2-amino-6-(3,4-dimethoxyphenyl)-4-(1-isobutyl-piperazin-1-yl)pteridine] | 7.05 |  | 5.80 |
| COc1ccc(-c2cnc3nc(N)nc(N4CCN(c5cc(Cl)cc(Cl)c5)CC4)c3n2)cc1OC [Example 171, 2-amino-4-((3,5-dichlorophenyl)-piperazin-1-yl)-6-(3,4-dimethoxyphenyl)pteridine] | 6.30 |  | 5.47 |
| COc1ccc(-c2cnc3nc(N)nc(N4CCN(Cc5ccccn5)CC4)c3n2)cc1OC [Example 177, 2-amino-6-(3,4-dimethoxyphenyl)-4-((2-pyridyl)methyl-piperazin-1-yl)pteridine] | 7.05 |  | 6.10 |
| COc1ccc(-c2cnc3nc(N)nc(N4CCN(CC5CCCN(C)C5)CC4)c3n2)cc1OC (centres unmarked) [Example 179, 2-amino-6-(3,4-dimethoxyphenyl)-4-(1-(1-methyl-piperidin-3-yl-methyl)-piperazin-1-yl)pteridine] | 5.74 |  | 5.10 |
| COc1ccc(-c2cnc3nc(N)nc(N4CCN(c5ccc(C(F)(F)F)cc5[N+](=O)[O-])CC4)c3n2)cc1OC [Example 185, 2-amino-4-[4-trifluoromethyl-2-nitro-phenyl-piperazin-1-yl)-6-(3,4-dimethoxyphenyl)pteridine] | 6.30 |  | 5.72 |
| COc1ccc(-c2cnc3nc(N)nc(N4CCN(c5ccc([N+](=O)[O-])cc5C(F)(F)F)CC4)c3n2)cc1OC [Example 186, 2-amino-4-[2-trifluoromethyl-4-nitro-phenyl-piperazin-1-yl)-6-(3,4-dimethoxyphenyl)pteridine] | 6.40 |  | 5.30 |
| COc1ccc(-c2cnc3nc(N)nc(N4CCN(C(=O)Nc5cccc(Cl)c5)CC4)c3n2)cc1OC [Example 193, 2-amino-4-(N-3-chloro-phenyl-carbamoyl-piperazin-1-yl)-6-(3,4-dimethoxyphenyl)pteridine] | 6.30 |  | 7.44 |
| COc1ccc(-c2cnc3nc(N)nc(N4CCN(C(=O)Nc5cccc(C(F)(F)F)c5)CC4)c3n2)cc1OC [Example 195, 2-amino-4-(N-3-trifluoromethyl-phenyl-carbamoyl-piperazin-1-yl)-6-(3,4-dimethoxyphenyl)pteridine] | 6.15 |  | 7.44 |
| COc1cc(-c2cnc3nc(N)nc(N4CCN(c5ccc(C)cc5)CC4)c3n2)ccc1O [Example 206] | 6.15 |  | 6.30 |
